We go through two molecules from ChEMBL document CHEMBL4665820, “Discovery of VU6027459: A First-in-Class Selective and CNS Penetrant mGlu Positive Allosteric Modulator Tool Compound” (ACS Med Chem Lett, 2020).

Active and inactive are the calls of the source. Bounds are passed on as bounds.

Data set [1] addresses Metabotropic glutamate receptor 7 (Rattus norvegicus, UniProt P35400). Kind of data set: Positive allosteric modulation of rat mGlu7 expressed in HEK293 cells co- expressing GIRK assessed as potentiation of L-AP4-induced thallium flux incubated for 140 sec by FluoZin2-AM dye based fluorescence analysis. Format: cell-based.
Data set [2] can be described thus: Plasma clearance in Sprague-Dawley rat at 0.2 to 0.25 mg/kg, iv measured upto 24 hrs by LC/MS/MS analysis. The format is ADME, organism-based. Conditions: dose 0.2-0.25 mg/kg.
Data set [3] can be described thus: Half-life in Sprague-Dawley rat at 0.2 to 0.25 mg/kg, iv measured upto 24 hrs by LC/MS/MS analysis. Format: ADME, organism-based. Conditions: in vivo, dose 0.2-0.25 mg/kg.
Data set [4] is described as follows: Volume of distribution at steady state in Sprague-Dawley rat at 0.2 to 0.25 mg/kg, iv measured upto 24 hrs by LC/MS/MS analysis. Format: ADME, organism-based. Conditions: in vivo, dose 0.2-0.25 mg/kg, read-out: Vdss.
Data set [5] addresses Beta-2 adrenergic receptor (Homo sapiens) (UniProt P07550). Kind of data set: Displacement of [3H]-(-)CGP 12177 from human recombinant adrenergic beta 2 receptor at 10 uM incubated for 120 mins by scintillation counting analysis relative to control. On the technique in general: Displacement assays read how much labelled ligand stays bound in the presence of the test substance.

In data set [6] the target is Androgen receptor (Homo sapiens) (UniProt P10275). The experiment in a line: Displacement of [3H]-methyltrienolone from human androgen receptor at 10 uM incubated for 1440 mins by scintillation counting analysis relative to control.
Androgen receptor (Homo sapiens), sequence (P10275 whole entry): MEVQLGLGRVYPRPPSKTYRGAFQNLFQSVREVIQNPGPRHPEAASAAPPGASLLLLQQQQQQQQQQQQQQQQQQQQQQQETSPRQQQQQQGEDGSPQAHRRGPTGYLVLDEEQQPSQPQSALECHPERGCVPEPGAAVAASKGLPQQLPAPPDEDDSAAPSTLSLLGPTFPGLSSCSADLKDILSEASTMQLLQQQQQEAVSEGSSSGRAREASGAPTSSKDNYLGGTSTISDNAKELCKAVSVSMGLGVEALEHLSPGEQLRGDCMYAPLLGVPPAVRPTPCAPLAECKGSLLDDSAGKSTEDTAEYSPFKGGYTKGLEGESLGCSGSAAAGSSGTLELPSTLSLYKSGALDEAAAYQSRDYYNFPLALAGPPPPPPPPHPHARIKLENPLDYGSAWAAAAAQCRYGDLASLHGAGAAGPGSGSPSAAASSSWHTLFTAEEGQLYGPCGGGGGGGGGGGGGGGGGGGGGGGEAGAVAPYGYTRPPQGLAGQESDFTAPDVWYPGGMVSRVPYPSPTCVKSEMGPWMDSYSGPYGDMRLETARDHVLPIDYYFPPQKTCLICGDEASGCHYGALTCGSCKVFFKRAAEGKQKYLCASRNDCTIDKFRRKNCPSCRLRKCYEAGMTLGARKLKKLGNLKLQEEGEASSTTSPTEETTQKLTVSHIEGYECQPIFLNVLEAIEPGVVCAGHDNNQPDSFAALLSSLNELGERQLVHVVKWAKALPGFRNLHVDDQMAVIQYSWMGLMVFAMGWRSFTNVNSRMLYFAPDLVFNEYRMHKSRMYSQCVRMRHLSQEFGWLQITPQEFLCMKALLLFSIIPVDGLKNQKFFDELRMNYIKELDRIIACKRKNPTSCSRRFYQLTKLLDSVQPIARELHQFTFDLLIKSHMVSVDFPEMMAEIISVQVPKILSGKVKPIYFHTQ
The target of data set [7] is Epidermal growth factor receptor (Homo sapiens) (UniProt P00533). Kind of data set: Displacement of [125I]-EGF from human EGF receptor at 10 uM incubated for 60 mins by scintillation counting analysis relative to control.
Epidermal growth factor receptor (Homo sapiens), sequence (P00533 whole entry): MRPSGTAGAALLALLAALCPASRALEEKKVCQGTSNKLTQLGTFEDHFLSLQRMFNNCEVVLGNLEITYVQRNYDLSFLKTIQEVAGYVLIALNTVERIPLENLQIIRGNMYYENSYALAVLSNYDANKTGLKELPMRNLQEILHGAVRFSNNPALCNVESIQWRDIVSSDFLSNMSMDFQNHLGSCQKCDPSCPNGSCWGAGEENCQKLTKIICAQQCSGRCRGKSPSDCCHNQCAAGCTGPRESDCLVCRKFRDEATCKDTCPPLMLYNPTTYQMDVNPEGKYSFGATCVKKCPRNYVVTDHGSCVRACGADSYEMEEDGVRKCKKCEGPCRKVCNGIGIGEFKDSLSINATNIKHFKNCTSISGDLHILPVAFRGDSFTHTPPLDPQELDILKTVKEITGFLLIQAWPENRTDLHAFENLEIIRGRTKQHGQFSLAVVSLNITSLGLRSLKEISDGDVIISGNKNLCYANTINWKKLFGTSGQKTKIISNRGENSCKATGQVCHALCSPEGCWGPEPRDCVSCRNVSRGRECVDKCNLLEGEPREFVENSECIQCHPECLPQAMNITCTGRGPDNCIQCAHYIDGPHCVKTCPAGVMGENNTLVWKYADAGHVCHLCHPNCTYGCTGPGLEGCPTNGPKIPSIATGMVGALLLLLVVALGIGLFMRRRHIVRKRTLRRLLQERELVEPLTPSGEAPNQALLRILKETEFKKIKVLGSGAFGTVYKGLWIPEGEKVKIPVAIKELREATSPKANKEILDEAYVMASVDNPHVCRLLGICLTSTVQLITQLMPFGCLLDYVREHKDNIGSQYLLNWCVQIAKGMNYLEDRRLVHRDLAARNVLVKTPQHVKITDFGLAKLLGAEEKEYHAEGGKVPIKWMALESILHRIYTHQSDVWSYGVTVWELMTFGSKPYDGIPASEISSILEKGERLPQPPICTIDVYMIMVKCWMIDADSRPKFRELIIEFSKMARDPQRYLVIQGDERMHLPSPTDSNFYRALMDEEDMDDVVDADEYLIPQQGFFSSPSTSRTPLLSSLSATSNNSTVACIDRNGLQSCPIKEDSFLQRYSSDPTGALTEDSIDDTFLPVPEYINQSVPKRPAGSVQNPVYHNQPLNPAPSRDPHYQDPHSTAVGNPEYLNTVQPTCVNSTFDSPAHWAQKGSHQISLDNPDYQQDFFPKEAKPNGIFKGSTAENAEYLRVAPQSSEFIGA
The target in data set [8] is Estrogen receptor (Homo sapiens) (UniProt P03372). Kind of data set: Displacement of [3H]-estradiol from human recombinant Estrogen ERalpha receptor at 10 uM incubated for 120 mins by scintillation counting analysis relative to control.
The species entered for data set [9] is Rattus norvegicus. The experiment in a line: Displacement of [3H]-Kainic acid from Glutamate ionotropic kainate receptor in rat at 10 uM incubated for 120 mins by scintillation counting analysis relative to control.
The target of data set [10] is Histamine H2 receptor (Homo sapiens) (UniProt P25021). Kind of data set: Displacement of [125I]APT from human recombinant histamine H2 receptor at 10 uM after 120 mins by scintillation counting analysis relative to control.
Histamine H2 receptor (Homo sapiens), sequence (P25021 whole entry): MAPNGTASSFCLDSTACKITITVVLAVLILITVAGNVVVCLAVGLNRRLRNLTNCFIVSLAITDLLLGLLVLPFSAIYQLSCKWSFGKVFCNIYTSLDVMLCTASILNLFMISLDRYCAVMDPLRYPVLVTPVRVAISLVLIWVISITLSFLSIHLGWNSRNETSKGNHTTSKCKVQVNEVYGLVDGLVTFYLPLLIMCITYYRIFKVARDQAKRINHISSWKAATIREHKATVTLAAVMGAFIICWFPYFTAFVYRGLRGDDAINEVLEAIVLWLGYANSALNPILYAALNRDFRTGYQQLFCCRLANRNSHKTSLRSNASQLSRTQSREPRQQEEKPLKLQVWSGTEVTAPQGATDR
Data set [11] deals with Interleukin-1 receptor type 1 (Homo sapiens) (UniProt P14778). Kind of data set: Displacement of [125I]-Interleukin 1beta from human interleukin IL-1 R1 receptor at 10 uM incubated for 120 mins by scintillation counting analysis relative to control.
For data set [12], the target named is Muscarinic acetylcholine receptor M3 (Homo sapiens) (UniProt P20309). The experiment in a line: Displacement of [3H]4-DAMP from human recombinant M3 receptor at 10 uM after 60 mins by scintillation counting analysis relative to control.
Muscarinic acetylcholine receptor M3 (Homo sapiens), sequence (P20309 whole entry, looked up): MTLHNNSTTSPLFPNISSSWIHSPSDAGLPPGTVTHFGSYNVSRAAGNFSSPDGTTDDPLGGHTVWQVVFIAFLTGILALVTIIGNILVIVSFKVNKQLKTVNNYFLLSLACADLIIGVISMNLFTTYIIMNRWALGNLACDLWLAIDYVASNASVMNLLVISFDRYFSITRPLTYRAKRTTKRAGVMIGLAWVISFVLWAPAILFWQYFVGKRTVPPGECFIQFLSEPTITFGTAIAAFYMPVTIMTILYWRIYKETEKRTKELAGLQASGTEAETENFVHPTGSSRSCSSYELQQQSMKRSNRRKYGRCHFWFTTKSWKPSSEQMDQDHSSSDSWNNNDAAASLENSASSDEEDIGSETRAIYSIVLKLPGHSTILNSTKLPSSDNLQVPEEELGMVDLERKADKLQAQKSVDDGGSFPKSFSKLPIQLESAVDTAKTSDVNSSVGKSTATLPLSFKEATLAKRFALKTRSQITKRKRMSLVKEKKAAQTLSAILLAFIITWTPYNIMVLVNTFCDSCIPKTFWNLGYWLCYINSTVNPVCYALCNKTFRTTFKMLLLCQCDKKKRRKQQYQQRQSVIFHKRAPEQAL
Data set [13] addresses Neuropeptide Y receptor type 2 (Homo sapiens) (UniProt P49146). Kind of data set: Displacement of [125I]peptide YY from human Y2 receptor at 10 uM after 120 mins by scintillation counting analysis relative to control.
The target of data set [14] is Kappa-type opioid receptor (Homo sapiens) (UniProt P41145). The experiment in a line: Displacement of [3H]U69593 from human kappa receptor at 10 uM after 60 mins by scintillation counting analysis relative to control.
Kappa-type opioid receptor (Homo sapiens), sequence (P41145 whole entry): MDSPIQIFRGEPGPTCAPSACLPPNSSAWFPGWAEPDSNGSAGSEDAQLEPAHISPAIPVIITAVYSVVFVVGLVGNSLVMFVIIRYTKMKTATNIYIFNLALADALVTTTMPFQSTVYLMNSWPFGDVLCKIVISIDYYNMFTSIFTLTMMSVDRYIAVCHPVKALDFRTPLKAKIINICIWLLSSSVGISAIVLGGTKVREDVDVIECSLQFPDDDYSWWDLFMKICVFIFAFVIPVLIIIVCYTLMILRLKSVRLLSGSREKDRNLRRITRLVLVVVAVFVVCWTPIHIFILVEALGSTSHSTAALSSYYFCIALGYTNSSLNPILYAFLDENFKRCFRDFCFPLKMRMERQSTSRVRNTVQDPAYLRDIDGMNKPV
Data set [15] deals with hERG (KCNH2) (Homo sapiens, UniProt Q12809). Kind of data set: Displacement of [3H]-Astemizole from human recombinant full length ERG channel at 10 uM incubated for 60 mins by scintillation counting analysis relative to control. Conditions: probe [3H]-astemizole.
Data set [16] has as its target dopamine transporter (DAT) (Homo sapiens, UniProt Q01959). Kind of data set: Displacement of […] from recombinant human Dopamine transporter at 10 uM after 120 mins by scintillation counting analysis relative to control. Format: ADME.
Data set [17] can be described thus: Hepatic intrinsic clearance in rat liver microsomes at 1 uM preincubated for 5 mins followed by NADPH addition and measured up to 45 mins by LC-MS/MS analysis. Format: ADME, Microsome. Conditions: read-out: CLH. Background: Microsomes from liver hold many membrane-bound enzymes, among them those of drug oxidation.
A short description of data set [18]: Hepatic intrinsic clearance in mouse liver microsomes at 1 uM preincubated for 5 mins followed by NADPH addition and measured up to 45 mins by LC-MS/MS analysis. The format is ADME, Microsome. Conditions: read-out: CLH.
The target of data set [19] is Metabotropic glutamate receptor 7 (Homo sapiens) (UniProt Q14831). Kind of data set: Agonist activity at human mGlu7 receptor. Conditions: tested as the 2H-labelled form.
Metabotropic glutamate receptor 7 (Homo sapiens), sequence (Q14831 whole entry): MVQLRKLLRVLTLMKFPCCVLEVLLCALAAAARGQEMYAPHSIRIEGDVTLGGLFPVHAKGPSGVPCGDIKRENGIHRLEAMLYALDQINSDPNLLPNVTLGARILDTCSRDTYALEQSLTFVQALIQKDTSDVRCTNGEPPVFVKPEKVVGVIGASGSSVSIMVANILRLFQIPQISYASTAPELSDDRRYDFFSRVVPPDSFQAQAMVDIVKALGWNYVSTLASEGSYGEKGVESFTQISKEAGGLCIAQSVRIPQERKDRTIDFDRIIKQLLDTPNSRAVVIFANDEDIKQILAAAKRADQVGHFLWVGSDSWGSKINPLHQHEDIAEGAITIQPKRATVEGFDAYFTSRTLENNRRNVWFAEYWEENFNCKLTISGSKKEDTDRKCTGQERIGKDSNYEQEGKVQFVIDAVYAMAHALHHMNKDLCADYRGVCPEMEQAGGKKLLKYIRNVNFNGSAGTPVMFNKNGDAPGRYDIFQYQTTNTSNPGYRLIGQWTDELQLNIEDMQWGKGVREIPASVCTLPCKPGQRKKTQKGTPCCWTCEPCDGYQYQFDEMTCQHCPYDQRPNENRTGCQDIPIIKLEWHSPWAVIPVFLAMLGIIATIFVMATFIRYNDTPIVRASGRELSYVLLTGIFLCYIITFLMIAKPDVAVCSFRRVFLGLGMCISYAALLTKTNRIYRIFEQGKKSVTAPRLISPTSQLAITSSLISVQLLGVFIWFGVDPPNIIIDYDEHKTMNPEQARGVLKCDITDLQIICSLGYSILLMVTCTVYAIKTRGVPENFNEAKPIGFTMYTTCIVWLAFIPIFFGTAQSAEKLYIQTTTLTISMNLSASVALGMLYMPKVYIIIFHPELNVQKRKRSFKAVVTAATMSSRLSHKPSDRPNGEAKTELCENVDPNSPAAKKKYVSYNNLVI
Data set [20] has the same target. Kind of data set: Positive allosteric modulation of human mGlu7 receptor. Conditions: filed as positive allosteric modulator; tested as the 2H-labelled form.

Beta-2 adrenergic receptor (Homo sapiens), sequence (P07550 whole entry, looked up): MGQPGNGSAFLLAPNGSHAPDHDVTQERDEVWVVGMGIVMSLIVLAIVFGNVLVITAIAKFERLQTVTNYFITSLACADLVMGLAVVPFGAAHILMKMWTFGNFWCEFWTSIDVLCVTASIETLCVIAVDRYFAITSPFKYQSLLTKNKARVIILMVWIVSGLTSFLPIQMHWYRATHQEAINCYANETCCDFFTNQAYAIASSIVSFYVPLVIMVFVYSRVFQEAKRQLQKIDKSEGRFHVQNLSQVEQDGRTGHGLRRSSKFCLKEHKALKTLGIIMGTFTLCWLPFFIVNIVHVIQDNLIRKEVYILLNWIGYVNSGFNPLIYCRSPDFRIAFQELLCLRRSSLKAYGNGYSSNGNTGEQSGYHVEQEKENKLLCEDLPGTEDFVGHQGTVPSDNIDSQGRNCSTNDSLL
Metabotropic glutamate receptor 7, sequence (P35400 whole entry): as the sequence (Q14831 whole entry) above, with R5G, A27V, N454H, S488T, A520S, D578N counted along it

Regarding `COc1cccc2c(N3CCN(c4ccccc4F)CC3)c(C#N)cnc12`, the EC50 (in general, the concentration that produces a half-maximal response) in data set [1] is 879 nM. Moreover, the clearance (in general, the rate of elimination divided by the concentration) in data set [2] came to 47.5 mL/min/kg. In data set [3], the half-life (usually the time needed for the level to fall by half in the phase considered) was 45 min. Also, the Vd in data set [4] amounted to 4.1 L/kg. Also, the inhibition in [5], in [6], in [7], in data set [8], in [9] and in data set [10] was under 50% each time. The inhibition in data set [11], in data set [12], in [13] and in [14] was under 50% in each case. In data set [15], the inhibition (in general, how much of the control response was suppressed) at 1 h, 10 µM was under 50%. In addition, in data set [16], the inhibition at 2 h, 10 µM was found to be 85%.

As to `COc1cc(F)cc2c(N3CCN(c4ccccc4F)CC3)c(C#N)cnc12`, the inhibition in data set [5] (tested as the 2H-labelled form), in data set [6] (tested as the 2H-labelled form), in data set [7] (tested as the 2H-labelled form), in data set [8] (tested as the 2H-labelled form), in data set [9] (tested as the 2H-labelled form) and in data set [10] (tested as the 2H-labelled form) was under 50% in each case. Moreover, the inhibition in data set [11] (tested as the 2H-labelled form), in data set [12] (tested as the 2H-labelled form), in [13] (tested as the 2H-labelled form) and in [14] (tested as the 2H-labelled form) was under 50% each time. The values for the CLint scaled at 1 µM in data set [17] and in [18] were 56 mL/min/kg and 87 mL/min/kg, respectively. Besides, in data set [19], the outcome was inactive. In addition, the result in data set [20] was Active.
